In PubChem BioAssay (NCI):
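These data come from cells grown in 96-well plates and exposed to compound for 48 hours at five concentrations. Definition used: TGI = concentration required for complete inhibition of growth.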

Key:
Test in all cases: NCI tumour cell line growth inhibition, 48 h
786-0 renal = system: 786-0 renal
A498 renal = system: A498 renal
A549 NSCLC = system: A549 NSCLC
ACHN renal = system: ACHN renal
BT-549 breast = system: BT-549 breast
CAKI-1 renal = system: CAKI-1 renal
CCRF-CEM leukemia = system: CCRF-CEM leukemia
COLO 205 colon = system: COLO 205 colon
DU-145 prostate = system: DU-145 prostate
EKVX NSCLC = system: EKVX NSCLC
HCT-116 colon = system: HCT-116 colon
HCT-15 colon = system: HCT-15 colon
HL-60(TB) leukemia = system: HL-60(TB) leukemia
HOP-62 NSCLC = system: HOP-62 NSCLC
HOP-92 NSCLC = system: HOP-92 NSCLC
HS 578T breast = system: HS 578T breast
HT29 colon = system: HT29 colon
IGROV1 ovarian = system: IGROV1 ovarian
K-562 leukemia = system: K-562 leukemia
KM12 colon = system: KM12 colon
LOX IMVI melanoma = system: LOX IMVI melanoma
M14 melanoma = system: M14 melanoma
MALME-3M melanoma = system: MALME-3M melanoma
MCF7 breast = system: MCF7 breast
MDA-MB-231 breast = system: MDA-MB-231 breast
MDA-MB-435 = system: MDA-MB-435
MDA-N = system: MDA-N
MOLT-4 leukemia = system: MOLT-4 leukemia
NCI-H226 lung = system: NCI-H226 lung
NCI-H23 lung = system: NCI-H23 lung
NCI-H460 lung = system: NCI-H460 lung
NCI-H522 lung = system: NCI-H522 lung
NCI/ADR-RES ovarian = system: NCI/ADR-RES ovarian
OVCAR-3 ovarian = system: OVCAR-3 ovarian
OVCAR-4 ovarian = system: OVCAR-4 ovarian
OVCAR-5 ovarian = system: OVCAR-5 ovarian
OVCAR-8 ovarian = system: OVCAR-8 ovarian
RPMI-8226 leukemia = system: RPMI-8226 leukemia
RXF 393 renal = system: RXF 393 renal
SF-268 CNS = system: SF-268 CNS
SF-295 CNS = system: SF-295 CNS
SF-539 CNS = system: SF-539 CNS
SK-MEL-2 melanoma = system: SK-MEL-2 melanoma
SK-MEL-28 melanoma = system: SK-MEL-28 melanoma
SK-MEL-5 melanoma = system: SK-MEL-5 melanoma
SK-OV-3 ovarian = system: SK-OV-3 ovarian
SN12C renal = system: SN12C renal
SNB-19 CNS = system: SNB-19 CNS
SNB-75 CNS = system: SNB-75 CNS
SW-620 colon = system: SW-620 colon
T-47D breast = system: T-47D breast
TK-10 renal = system: TK-10 renal
U251 CNS = system: U251 CNS
UACC-257 melanoma = system: UACC-257 melanoma
UACC-62 melanoma = system: UACC-62 melanoma
UO-31 renal = system: UO-31 renal
HCC-2998 colon = system: HCC-2998 colon
PC-3 prostate = system: PC-3 prostate

O=C(CC(=O)CC(O)(C(F)(F)F)C(F)(F)F)CC(O)(C(F)(F)F)C(F)(F)F
TGI (786-0 renal): > 10 µM | TGI (A498 renal): > 10 µM | TGI (A549 NSCLC): > 10 µM | TGI (ACHN renal): > 10 µM | TGI (BT-549 breast): > 10 µM | TGI (CAKI-1 renal): > 10 µM | TGI (CCRF-CEM leukemia): > 10 µM | TGI (COLO 205 colon): > 10 µM | TGI (DU-145 prostate): > 10 µM | TGI (EKVX NSCLC): > 10 µM | TGI (HCT-116 colon): > 10 µM | TGI (HCT-15 colon): > 10 µM | TGI (HL-60(TB) leukemia): > 10 µM | TGI (HOP-62 NSCLC): > 10 µM | TGI (HOP-92 NSCLC): > 10 µM | TGI (HS 578T breast): > 10 µM | TGI (HT29 colon): > 10 µM | TGI (IGROV1 ovarian): > 10 µM | TGI (K-562 leukemia): > 10 µM | TGI (KM12 colon): > 10 µM | TGI (LOX IMVI melanoma): > 10 µM | TGI (M14 melanoma): > 10 µM | TGI (MALME-3M melanoma): > 10 µM | TGI (MCF7 breast): > 10 µM | TGI (MDA-MB-231 breast): > 10 µM | TGI (MDA-MB-435): > 10 µM | TGI (MDA-N): > 10 µM | TGI (MOLT-4 leukemia): > 10 µM | TGI (NCI-H226 lung): > 10 µM | TGI (NCI-H23 lung): > 10 µM | TGI (NCI-H460 lung): > 10 µM | TGI (NCI-H522 lung): > 10 µM | TGI (NCI/ADR-RES ovarian): > 10 µM | TGI (OVCAR-3 ovarian): > 10 µM | TGI (OVCAR-4 ovarian): > 10 µM | TGI (OVCAR-5 ovarian): > 10 µM | TGI (OVCAR-8 ovarian): > 10 µM | TGI (RPMI-8226 leukemia): > 10 µM | TGI (RXF 393 renal): > 10 µM | TGI (SF-268 CNS): > 10 µM | TGI (SF-295 CNS): > 10 µM | TGI (SF-539 CNS): > 10 µM | TGI (SK-MEL-2 melanoma): > 10 µM | TGI (SK-MEL-28 melanoma): > 10 µM | TGI (SK-MEL-5 melanoma): > 10 µM | TGI (SK-OV-3 ovarian): > 10 µM | TGI (SN12C renal): > 10 µM | TGI (SNB-19 CNS): > 10 µM | TGI (SNB-75 CNS): > 10 µM | TGI (SW-620 colon): > 10 µM | TGI (T-47D breast): > 10 µM | TGI (TK-10 renal): > 10 µM | TGI (U251 CNS): > 10 µM | TGI (UACC-257 melanoma): > 10 µM | TGI (UACC-62 melanoma): > 10 µM | TGI (UO-31 renal): > 10 µM

CC(CC(C#N)(c1ccccc1)c1ccccc1)N1CCCCC1 (stereo not drawn)
TGI (786-0 renal): 80.3 µM | TGI (A498 renal): 85.1 µM | TGI (A549 NSCLC): > 100 µM | TGI (ACHN renal): > 100 µM | TGI (BT-549 breast): > 100 µM | TGI (CAKI-1 renal): > 100 µM | TGI (CCRF-CEM leukemia): 46.6 µM | TGI (COLO 205 colon): 32.9 µM | TGI (DU-145 prostate): > 100 µM | TGI (EKVX NSCLC): 56.3 µM | TGI (HCC-2998 colon): 29.1 µM | TGI (HCT-116 colon): 57.7 µM | TGI (HCT-15 colon): 68.6 µM | TGI (HL-60(TB) leukemia): 42.3 µM | TGI (HOP-62 NSCLC): 88.4 µM | TGI (HOP-92 NSCLC): > 100 µM | TGI (HS 578T breast): 79.9 µM | TGI (HT29 colon): 51 µM | TGI (IGROV1 ovarian): > 100 µM | TGI (K-562 leukemia): 45.5 µM | TGI (KM12 colon): 49.2 µM | TGI (LOX IMVI melanoma): 33.5 µM | TGI (M14 melanoma): 39.1 µM | TGI (MALME-3M melanoma): 35.6 µM | TGI (MCF7 breast): 74.7 µM | TGI (MDA-MB-231 breast): 63.8 µM | TGI (MDA-MB-435): 49.4 µM | TGI (MDA-N): 46.7 µM | TGI (MOLT-4 leukemia): 49.3 µM | TGI (NCI-H226 lung): 46.4 µM | TGI (NCI-H23 lung): > 100 µM | TGI (NCI-H460 lung): 31.7 µM | TGI (NCI-H522 lung): 36.7 µM | TGI (NCI/ADR-RES ovarian): > 100 µM | TGI (OVCAR-3 ovarian): 44.5 µM | TGI (OVCAR-4 ovarian): > 100 µM | TGI (OVCAR-5 ovarian): > 100 µM | TGI (OVCAR-8 ovarian): > 100 µM | TGI (PC-3 prostate): > 100 µM | TGI (RPMI-8226 leukemia): 40.7 µM | TGI (RXF 393 renal): > 100 µM | TGI (SF-268 CNS): > 100 µM | TGI (SF-295 CNS): 65.8 µM | TGI (SK-MEL-2 melanoma): 46.4 µM | TGI (SK-MEL-28 melanoma): 67 µM | TGI (SK-MEL-5 melanoma): 33.6 µM | TGI (SK-OV-3 ovarian): > 100 µM | TGI (SN12C renal): 74.5 µM | TGI (SNB-19 CNS): > 100 µM | TGI (SNB-75 CNS): > 100 µM | TGI (SW-620 colon): 49.5 µM | TGI (T-47D breast): > 100 µM | TGI (TK-10 renal): 46.5 µM | TGI (U251 CNS): > 100 µM | TGI (UACC-257 melanoma): 29.6 µM | TGI (UACC-62 melanoma): 59.1 µM | TGI (UO-31 renal): 79.6 µM
